ChEMBL document CHEMBL3044567, “Synthesis and biological evaluation of novel condensed pyrimidinylmethylsulfinylbenzimidazoles as antiulcer agent” (2013)

Assays:
Assay type in all cases: functional, Stomach
Rattus norvegicus [1] = assay: Antiulcer activity in Wistar Rattus norvegicus (rat) assessed as decrease in total volume of gastric secretions at 0.0289 mM/kg, po administered 1 hr prior to pylorous ligation measured after 19 hr relative to untreated control; set-up: scale not given: the % may be the effect or the level left
Rattus norvegicus [2] = assay: Antiulcer activity in Wistar Rattus norvegicus (rat) assessed as decrease in total acidity of gastric secretions at 0.0289 mM/kg, po administered 1 hr prior to pylorous ligation measured after 19 hr by titRattus norvegicus (rat)ion assay relative to untreated control; set-up: scale not given: the % may be the effect or the level left
Rattus norvegicus [3] = assay: Antiulcer activity in Wistar Rattus norvegicus (rat) assessed as decrease in total acidity of gastric secretions at 0.0579 mM/kg, po administered 1 hr prior to pylorous ligation measured after 19 hr by titRattus norvegicus (rat)ion assay relative to untreated control; set-up: scale not given: the % may be the effect or the level left
Rattus norvegicus [4] = assay: Antiulcer activity in Wistar Rattus norvegicus (rat) assessed as increase in pH of gastric secretions at 0.1158 mM/kg, po administered 1 hr prior to pylorous ligation measured after 19 hr by digital pH metric analysis relative to untreated control
Rattus norvegicus [5] = assay: Antiulcer activity in Wistar Rattus norvegicus (rat) assessed as increase in pH of gastric secretions at 0.0579 mM/kg, po administered 1 hr prior to pylorous ligation measured after 19 hr by digital pH metric analysis relative to untreated control
Rattus norvegicus [6] = assay: Antiulcer activity in Wistar Rattus norvegicus (rat) assessed as decrease in total volume of gastric secretions at 0.0579 mM/kg, po administered 1 hr prior to pylorous ligation measured after 19 hr relative to untreated control; set-up: scale not given: the % may be the effect or the level left
Rattus norvegicus [7] = assay: Antiulcer activity in Wistar Rattus norvegicus (rat) assessed as decrease in total volume of gastric secretions at 0.1158 mM/kg, po administered 1 hr prior to pylorous ligation measured after 19 hr relative to untreated control; set-up: scale not given: the % may be the effect or the level left
Rattus norvegicus [8] = assay: Antiulcer activity in Wistar Rattus norvegicus (rat) assessed as decrease in total acidity of gastric secretions at 0.1158 mM/kg, po administered 1 hr prior to pylorous ligation measured after 19 hr by titRattus norvegicus (rat)ion assay relative to untreated control; set-up: scale not given: the % may be the effect or the level left
Rattus norvegicus [9] = assay: Antiulcer activity in Wistar Rattus norvegicus (rat) assessed as change in pH of gastric secretions at 0.0289 mM/kg, po administered 1 hr prior to pylorous ligation measured after 19 hr by digital pH metric analysis relative to untreated control

Row | Compound | Activity (Rattus norvegicus [1]) [%] | Activity (Rattus norvegicus [2]) [%] | Activity (Rattus norvegicus [3]) [%] | Activity (Rattus norvegicus [4]) [%] | Activity (Rattus norvegicus [5]) [%] | Activity (Rattus norvegicus [6]) [%] | Activity (Rattus norvegicus [7]) [%] | Activity (Rattus norvegicus [8]) [%] | Activity (Rattus norvegicus [9]) [%]
1 | [O-][S+](Cc1nc(OCC(F)(F)F)c2c(-c3ccc(Cl)cc3)csc2n1)c1nc2ccccc2[nH]1 (configuration not stated) | 43.08 | 22.34 | 41.76 | 32.86 | 17.97 | 50.26 | 60.37 | 52.82 | 2.03
2 | COc1ccc2[nH]c([S+]([O-])Cc3nc(OC)c4c(-c5ccccc5)csc4n3)nc2c1 (configuration not stated) | 47.07 | 17.6 | 23.7 | 10.84 | 4.02 | 46.01 | 52.92 | 38.6 | 3.35
3 | COc1nc(C[S+]([O-])c2nc3ccccc3[nH]2)nc2sc3c(c12)CCCC3 (configuration not stated) | 23.93 | 24.15 | 37.69 | 23.55 | 17.33 | 51.06 | 50 | 39.27 | 6.65
4 | COc1ccc2[nH]c([S+]([O-])Cc3ncc(C)c(OC)c3C)nc2c1 (configuration not stated) [OMEPRAZOLE] | 53.72 | 49.66 | 56.65 | 62.67 | 55.79 | 63.55 | 73.93 | 71.55 | 50.9
5 | [O-][S+](Cc1nc(OCC(F)(F)F)c2c3c(sc2n1)CCCC3)c1nc2ccccc2[nH]1 (configuration not stated) | 60.1 | 27.08 | 38.14 | 14.13 | 6.28 | 29.78 | 34.57 | 52.14 | 5.45
6 | [O-][S+](Cc1nc(OCC(F)(F)F)c2c(-c3ccccc3)csc2n1)c1nc2ccccc2[nH]1 (configuration not stated) | 49.46 | 16.93 | 26.18 | 8.09 | 0.1 | 45.21 | 50.53 | 45.37 | 3.69
7 | COc1ccc2[nH]c([S+]([O-])Cc3nc(Cl)c4c(-c5ccccc5)csc4n3)nc2c1 (configuration not stated) | 42.02 | 20.76 | 25.5 | 14.36 | 5.54 | 68.08 | 76.32 | 40.18 | 5.45
8 | COc1nc(C[S+]([O-])c2nc3ccccc3[nH]2)nc2scc(-c3ccccc3)c12 (configuration not stated) | 70.74 | 23.92 | 25.28 | 9.91 | 6.19 | 61.96 | 72.34 | 36.79 | 0.72
9 | COc1ccc2[nH]c([S+]([O-])Cc3nc(OC)c4c5c(sc4n3)CCCC5)nc2c1 (configuration not stated) | 69.94 | 29.57 | 33.86 | 10.33 | 9.05 | 77.39 | 57.71 | 50.33 | 1.44
10 | COc1ccc2[nH]c([S+]([O-])Cc3nc(Cl)c4c(-c5ccc(Cl)cc5)csc4n3)nc2c1 (configuration not stated) | 56.64 | 18.05 | 24.37 | 19.72 | 5.91 | 67.28 | 73.67 | 44.01 | 1.44
11 | COc1ccc2[nH]c([S+]([O-])Cc3nc(Cl)c4c5c(sc4n3)CCCC5)nc2c1 (configuration not stated) | 44.41 | 24.37 | 41.76 | 20.03 | 11.99 | 53.98 | 59.84 | 48.08 | 5.07
12 | COc1nc(C[S+]([O-])c2nc3ccccc3[nH]2)nc2scc(-c3ccc(Cl)cc3)c12 (configuration not stated) | 52.65 | 32.05 | 42.43 | 23.31 | 11.17 | 58.24 | 69.68 | 51.46 | 8.96
13 | COc1ccc2[nH]c([S+]([O-])Cc3nc(OC)c4c(-c5ccc(Cl)cc5)csc4n3)nc2c1 (configuration not stated) | 28.19 | 5.41 | 22.12 | 3.048 | 2.25 | 43.88 | 55.58 | 37.92 | 5.41
